In PubChem BioAssay AID248 (DTP/NCI, 2004):
“And” between values parts separate entries of the source, which are not always exact repeats. Equal values may be shown once. Inconclusive results and toxic doses are left out. Rule as the data show it: active = T/C of 150% or more; inactive = T/C below 125%. Square brackets hold non-standard residues; d marks the D form. Peptide text beside a SMILES is read from it. * marks the point of attachment. Tos = Cc1ccc(S(=O)(=O)*)cc1; ΔPro = O=C(O)[CH]1C=CCN1

System: L1210 leukemia ip in BDF1 mice, survival T/C
Experiment: NCI In Vivo Anticancer Drug Screen. Data for tumor model L1210 Leukemia (intraperitoneal) in B6D2F1 (BDF1) mice
Conditions: endpoint: mean survival time, higher = longer survival
Summary of the method: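 Tumor was transplanted into mice, which were then dosed with test compound or vehicle alone. Survival was recorded for each group, and the treated figure was expressed relative to the control figure.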

[1] = dose: 100.0 mg/kg/injection, schedule: Q04DX003 (ip), vehicle: saline
[2] = dose: 200.0 mg/kg/injection, schedule: Q04DX003 (ip), vehicle: saline
[3] = dose: 100.0 mg/kg/injection, schedule: Q04DX003 (ip), vehicle: saline with Tween-80
[4] = dose: 200.0 mg/kg/injection, schedule: Q04DX003 (ip), vehicle: saline with Tween-80
[5] = dose: 400.0 mg/kg/injection, schedule: Q04DX003 (ip), vehicle: saline with Tween-80
[6] = dose: 2.0 mg/kg/injection, schedule: Q01DX009 (ip), vehicle: saline
[7] = dose: 8.0 mg/kg/injection, schedule: Q01DX009 (ip), vehicle: saline
[8] = dose: 100.0 mg/kg/injection, schedule: Q01DX001 (ip), vehicle: saline
[9] = dose: 25.0 mg/kg/injection, schedule: Q01DX009 (ip), vehicle: Klucel (hydroxypropylcellulose) (HPC)
[10] = dose: 50.0 mg/kg/injection, schedule: Q01DX009 (ip), vehicle: Klucel (hydroxypropylcellulose) (HPC)
[11] = dose: 100.0 mg/kg/injection, schedule: Q01DX009 (ip), vehicle: Klucel (hydroxypropylcellulose) (HPC)
[12] = dose: 100.0 mg/kg/injection, schedule: Q04DX003 (ip), vehicle: Klucel (hydroxypropylcellulose) (HPC)
[13] = dose: 200.0 mg/kg/injection, schedule: Q04DX003 (ip), vehicle: Klucel (hydroxypropylcellulose) (HPC)
[14] = dose: 400.0 mg/kg/injection, schedule: Q04DX003 (ip), vehicle: Klucel (hydroxypropylcellulose) (HPC)
[15] = dose: 200.0 mg/kg/injection, schedule: Q01DX009 (ip), vehicle: Klucel (hydroxypropylcellulose) (HPC)
[16] = dose: 400.0 mg/kg/injection, schedule: Q01DX009 (ip), vehicle: Klucel (hydroxypropylcellulose) (HPC)
[17] = dose: 100.0 mg/kg/injection, schedule: Q01DX001 (ip), vehicle: Klucel (hydroxypropylcellulose) (HPC)
[18] = dose: 200.0 mg/kg/injection, schedule: Q01DX001 (ip), vehicle: Klucel (hydroxypropylcellulose) (HPC)
[19] = dose: 400.0 mg/kg/injection, schedule: Q01DX001 (ip), vehicle: Klucel (hydroxypropylcellulose) (HPC)
[20] = dose: 125.0 mg/kg/injection, schedule: Q01DX Z (ip), vehicle: methylcellulose (MC)

Measured: T/C

CC(C)N1CCOC1c1ccccc1 (stereo unspecified)
inactive: dose: 50.0 mg/kg/injection, schedule: Q01DX009 (ip), vehicle: saline sonified 105 % of control | dose: 100.0 mg/kg/injection, schedule: Q01DX009 (ip), vehicle: saline sonified 105 % of control | [1] 100 % of control | dose: 200.0 mg/kg/injection, schedule: Q01DX009 (ip), vehicle: saline sonified 100 % of control | [2] 96 % of control

Cc1ccc2c(c1)C=CC(C#N)N2C(=O)OCc1ccccc1 (stereo unspecified)
inactive: [3] 95 % of control | [4] 97 % of control | [5] 94 % of control

COc1ccc2nc3cc(Cl)ccc3c(NCCCSCCCl)c2n1
inactive: [6] 116 % of control | [7] 109 % of control

CCCCC[As](=O)(O)CCCCC
inactive: dose: 5.0 mg/kg/injection, schedule: Q01DX001 (ip), vehicle: saline 104 % of control | dose: 10.0 mg/kg/injection, schedule: Q01DX001 (ip), vehicle: saline 106 % of control | dose: 40.0 mg/kg/injection, schedule: Q01DX001 (ip), vehicle: saline 115 % of control | [8] 94 % of control

S=C=NC1CCC(CC2CCCCC2)CC1 (stereo unspecified)
inactive: [9] 105 % of control | [10] 94 % of control | [11] 93 % of control and 96 % of control | [12] 98 % of control | [13] 101 % of control | [14] 103 % of control

O=C(Nc1ccc(S(=O)(=O)c2ccc(NC(=O)C(F)(F)N3CCOCC3)cc2)cc1)C(F)(F)N1CCOCC1
inactive: dose: 100.0 mg/kg/injection, schedule: Q01DX001 (ip), vehicle: carboxymethylcellulose (CMC) 103 % of control | dose: 200.0 mg/kg/injection, schedule: Q01DX001 (ip), vehicle: carboxymethylcellulose (CMC) 97 % of control | dose: 400.0 mg/kg/injection, schedule: Q01DX001 (ip), vehicle: carboxymethylcellulose (CMC) 103 % of control

CCCCC(CCCC)c1ccccn1
inactive: [1] 97 % of control | [2] 97 % of control | dose: 400.0 mg/kg/injection, schedule: Q04DX003 (ip), vehicle: saline 93 % of control

CCCCCCCCCCCC(=O)c1ccccc1
inactive: [11] 86 % of control | [15] 91 % of control | [16] 94 % of control

Oc1cccc2c1ccc1ccc3ccccc3c12
inactive: [3] 92 % of control | [4] 95 % of control | [5] 90 % of control

C1CCC2(CC1)CCCC2
inactive: dose: 75.0 mg/kg/injection, schedule: Q01DX001 (ip), vehicle: saline with Tween-80 95 % of control | dose: 150.0 mg/kg/injection, schedule: Q01DX001 (ip), vehicle: saline with Tween-80 92 % of control | dose: 300.0 mg/kg/injection, schedule: Q01DX001 (ip), vehicle: saline with Tween-80 104 % of control

COC(=O)C1C=CCN1C(=O)C(Cc1ccccc1)NS(=O)(=O)c1ccc(C)cc1 (stereo not drawn) (Tos-Phe-[ΔPro]-OMe; configuration not given here)
inactive: dose: 50.0 mg/kg/injection, schedule: Q01DX005 (ip), vehicle: saline 96 % of control | dose: 100.0 mg/kg/injection, schedule: Q01DX005 (ip), vehicle: saline 107 % of control | dose: 200.0 mg/kg/injection, schedule: Q01DX005 (ip), vehicle: saline 105 % of control

CCOc1ccc(/C=N/NC(=O)c2ccccc2NC(=O)c2ccccc2Cl)cc1OC
inactive: [17] 93 % of control | [11] 97 % of control and 90 % of control | dose: 100.0 mg/kg/injection, schedule: Q04DX002 (ip), vehicle: Klucel (hydroxypropylcellulose) (HPC) 95 % of control and 103 % of control | [12] 92 % of control | [18] 98 % of control | [15] 90 % of control and 91 % of control | dose: 200.0 mg/kg/injection, schedule: Q04DX002 (ip), vehicle: Klucel (hydroxypropylcellulose) (HPC) 108 % of control and 92 % of control | [13] 97 % of control | [19] 93 % of control | [16] 94 % of control and 88 % of control | dose: 400.0 mg/kg/injection, schedule: Q04DX002 (ip), vehicle: Klucel (hydroxypropylcellulose) (HPC) 97 % of control and 92 % of control | [14] 92 % of control

CCc1c(C=O)[nH]c(=S)n(C)c1=O
inactive: [17] 104 % of control | [11] 108 % of control | [18] 98 % of control | [15] 88 % of control | [19] 101 % of control | [16] 98 % of control

Nc1[nH]c(=S)[nH]c(=S)c1N
inactive: [20] 101 % of control

O=C(Nc1ccccc1C(=O)N/N=C/c1ccccc1Cl)c1ccccc1Cl
inactive: [11] 90 % of control | [15] 103 % of control | [16] 86 % of control

COC1OC2COC(c3ccccc3)OC2C(O)C1N (stereo unspecified)
inactive: dose: 50.0 mg/kg/injection, schedule: Q04DX003 (ip), vehicle: saline with Tween-80 93 % of control | [3] 98 % of control

CCCCCCCCCCCCC(CCC)(OO)C(=O)OC (stereo unspecified)
inactive: dose: 25.0 mg/kg/injection, schedule: Q04DX002 (ip), vehicle: saline with Tween-80 98 % of control | dose: 50.0 mg/kg/injection, schedule: Q04DX002 (ip), vehicle: saline with Tween-80 87 % of control | dose: 100.0 mg/kg/injection, schedule: Q04DX002 (ip), vehicle: saline with Tween-80 98 % of control

CSc1nc(N)c(N)c(SC)n1
inactive: dose: 16.0 mg/kg/injection, schedule: Q01DX Z (ip), vehicle: methylcellulose (MC) 91 % of control | dose: 31.0 mg/kg/injection, schedule: Q01DX Z (ip), vehicle: methylcellulose (MC) 93 % of control | dose: 62.0 mg/kg/injection, schedule: Q01DX Z (ip), vehicle: methylcellulose (MC) 96 % of control | dose: 100.0 mg/kg/injection, schedule: Q01DX001 (ip), vehicle: other 102 % of control | dose: 100.0 mg/kg/injection, schedule: Q04DX003 (ip), vehicle: other 94 % of control | [20] 93 % of control | dose: 200.0 mg/kg/injection, schedule: Q01DX001 (ip), vehicle: other 101 % of control | dose: 200.0 mg/kg/injection, schedule: Q04DX003 (ip), vehicle: other 96 % of control | dose: 400.0 mg/kg/injection, schedule: Q01DX001 (ip), vehicle: other 96 % of control | dose: 400.0 mg/kg/injection, schedule: Q04DX003 (ip), vehicle: other 102 % of control

CCC[CH2][Sn]([Cl])([CH2]CCC)[CH2]CCC
inactive: [6] 94 % of control | dose: 2.0 mg/kg/injection, schedule: Q04DX003 (ip), vehicle: saline 103 % of control | dose: 4.0 mg/kg/injection, schedule: Q01DX009 (ip), vehicle: saline 90 % of control | dose: 4.0 mg/kg/injection, schedule: Q04DX003 (ip), vehicle: saline 100 % of control | [7] 98 % of control | dose: 8.0 mg/kg/injection, schedule: Q04DX003 (ip), vehicle: saline 97 % of control

Cc1cccc(-c2nc3ncnc(N)c3[nH]2)c1
inactive: dose: 6.25 mg/kg/injection, schedule: Q01DX001 (ip), vehicle: saline with Tween-80 95 % of control | dose: 12.5 mg/kg/injection, schedule: Q01DX001 (ip), vehicle: saline with Tween-80 97 % of control | dose: 25.0 mg/kg/injection, schedule: Q01DX001 (ip), vehicle: saline with Tween-80 101 % of control

Nc1ccc(OCC(=O)Nc2ccc(S(=O)(=O)F)cc2)cc1
inactive: [8] 101 % of control | dose: 200.0 mg/kg/injection, schedule: Q01DX001 (ip), vehicle: saline 103 % of control

COc1ccccc1NNS(=O)(=O)c1cccc([N+](=O)[O-])c1
inactive: dose: 75.0 mg/kg/injection, schedule: Q04DX003 (ip), vehicle: Klucel (hydroxypropylcellulose) (HPC) 104 % of control | [17] 100 % of control | dose: 150.0 mg/kg/injection, schedule: Q04DX003 (ip), vehicle: Klucel (hydroxypropylcellulose) (HPC) 94 % of control | [18] 103 % of control | dose: 300.0 mg/kg/injection, schedule: Q04DX003 (ip), vehicle: Klucel (hydroxypropylcellulose) (HPC) 104 % of control | [19] 105 % of control

Nc1nc(N)nc(CCP(CCc2nc(N)nc(N)n2)CCc2nc(N)nc(N)n2)n1
inactive: [9] 110 % of control | [10] 108 % of control | [11] 104 % of control | [12] 110 % of control and 113 % of control | [13] 98 % of control and 100 % of control | [14] 101 % of control

CC(C)(CO)Nc1ccccc1
inactive: [3] 114 % of control | [4] 90 % of control | [5] 97 % of control
